Test results reported in paper PMC6399176, “Assembly of a heterodinuclear Mn/Fe cofactor is coupled to tyrosine–valine ether cross-link formation in the R2-like ligand-binding oxidase” (Journal of Biological Inorganic Chemistry, 2019).

Target: T1, R2loxI (R2-like ligand-binding oxidase, R2lox) (Geobacillus kaustophilus, UniProt Q5KW80, A171F)
T1 construct: gene GK2771; full-length, N-terminal hexahistidine tag, pET-46 Ek/LIC, E. coli BL21(DE3), purified metal-free
Test: X-ray crystallography
Conditions: oxidized resting state, Mn/Fe-soaked crystal; ligand co-purified, further up in the tunnel, not at the metals; modelled as C8 acid from partial density, true identity and chain length uncertain

T1 sequence (Q5KW80 entry or part of it A171F): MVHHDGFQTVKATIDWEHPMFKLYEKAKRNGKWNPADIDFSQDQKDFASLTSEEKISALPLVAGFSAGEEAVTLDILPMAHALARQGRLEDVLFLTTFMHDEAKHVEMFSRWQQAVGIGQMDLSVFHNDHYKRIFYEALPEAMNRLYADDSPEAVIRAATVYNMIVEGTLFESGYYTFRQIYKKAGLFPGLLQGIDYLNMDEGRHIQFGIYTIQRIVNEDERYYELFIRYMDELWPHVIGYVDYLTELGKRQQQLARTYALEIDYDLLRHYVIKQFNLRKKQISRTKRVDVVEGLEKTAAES

Structure (SMILES): CCCCCCCC(=O)O [caprylic (C8) acid]
- X-ray crystallography: could only reasonably be modeled (as caprylic (C8) acid) in the oxidized state
